The values below are quoted from earlier work in patent US20040097484A1 (priority 2002, published 2004).

The conditions of the data set: in vivo.

Regarding `COc1ccc2c3c1O[C@H]1C[C@@H](O)C=C[C@@]31CCN(C)C2` [galantamine, 4a, 5,9, 10, 11, 12-hexahydro-3-methoxy-11-methyl-6H-benzofuro [3a, 3,2-e][2] benzazepin-6-ol], the “effective plasma concentration duration (sufficient elimination half-life)” value is recorded as “at least 4 hours”.
